According to patent US20120252791A1, “Heterocyclic GTP Cyclohydrolase 1 Inhibitors For the Treatment of Pain” (priority 2009, published 2012):

What follows are compounds tested against T1, GCH-1 (Homo sapiens, UniProt P30793) (assay: LC/MS assay monitoring GTP consumption and neopterin formation by GCH-1). Conditions: Table 8, LC/MS assay; 2 μM GCH-1, 120 μM GTP, 1 hour at 37° C.; read-out: IC50.
T1 sequence (P30793 1-250): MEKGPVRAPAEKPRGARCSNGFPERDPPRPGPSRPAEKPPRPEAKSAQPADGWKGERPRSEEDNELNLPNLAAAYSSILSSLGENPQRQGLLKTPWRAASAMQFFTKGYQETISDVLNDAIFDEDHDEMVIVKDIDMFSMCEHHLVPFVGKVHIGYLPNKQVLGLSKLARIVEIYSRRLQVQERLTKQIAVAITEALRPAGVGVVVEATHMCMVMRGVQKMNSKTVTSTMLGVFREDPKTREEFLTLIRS
Format: biochemical
Procedure: This method is based on transformations known in the art (see, for example, Xie et al., J. Biol. Chem. 273(33):21091-21098, 1998). The LC-MS assay is carried out by the following steps.
(1) GCH-1 reaction • 2 μM GCH-1, 120 μM GTP, 1 hour incubation at 37° C. (2) Termination of GCH-1 reaction by de-phosphorylation • The reaction is stopped by the addition of excess alkaline phosphatase (2 units/sample) • 1 hour incubation at 37° C. (3) Oxidation of 7,8-dihydroneopterin to get a stabile final product • Oxidation with 0.1 M […] for 1 hour at 37° C. resulting in oxidation of 7,8-dihydroneopterin to neopterin • Termination of the oxidation reaction by addition of ascorbic acid
• Sample analysis using highly specific LC/MS methods to detect guanosine and neopterin in parallel • Data analysis and automated CRC fitting to get IC50 values
Compound `COCCSc1nc2c(=O)[nH]c(N)nc2[nH]1` [(6)] has an IC50 of 25 µM. Work on `Nc1nc2[nH]c(SCC3CCOCC3)nc2c(=O)[nH]1` [(9)] yielded an IC50 of 39 µM. With `Nc1nc2[nH]c(N)nc2c(=O)[nH]1` [(31)] the IC50 was 27 µM. `CCOc1ccccc1NC(=O)CSc1nc2c(O)nc(N)nc2[nH]1` [(56)] showed an IC50 of 40 µM. Work on `CCCSc1nc2c(=O)[nH]c(N)nc2[nH]1` [Compound (3)] yielded an IC50 of 14 µM. `CCCSc1nc2c(=O)[nH]c(N)nc2n1C` [Compound (4)] showed an IC50 of 85 µM. For `Cn1c(=S)[nH]c2nc(N)[nH]c(=O)c21` [Compound (13)], the IC50 was 76 µM. Work on `COCCn1cnc2c(=O)[nH]c(N)nc21` [Compound (29)] yielded an IC50 greater than 400 µM. `Nc1nc2[nH]ccc2c(=O)[nH]1` [Compound (37)] gave an IC50 of 43 µM. Compound `Cn1ccc2c(=O)[nH]c(N)nc21` [Compound (38)] has an IC50 of 193 µM. With `Cc1cn(C)c2nc(N)[nH]c(=O)c12` [Compound (40)] the IC50 was greater than 400 µM.

Same assay, conditions: assay validation with known GCH-1 inhibitors; 2 μM GCH-1, 120 μM GTP, 1 hour at 37° C.; read-out: IC50 [μM] LC/MS assay
For `Nc1nc2[nH]c(S)nc2c(=O)[nH]1` [8-mercaptoguanine, reference compound], the IC50 was 5 µM.
